Measured values taken from patent US20080031866A1, “METHOD FOR MODULATING THE PHARMACOKINETICS AND METABOLISM OF A THERAPEUTIC AGENT” (priority 2006, published 2008).
≈ marks a conversion by molar mass, not a printed value. Like-named read-outs stand apart in the source and are kept apart here.

How the values were obtained:
[1] = system: β-glucuronidase derived from E. Coli; assay: In vitro incubation of Glu A and Glu B with β-glucuronidase; assay type: in vitro ADME; settings: for Glucuronide remaining: 500 μM glucuronide, β-glucuronidase, 37° C.; for Stability in control samples without β-glucuronidase: control incubation, no enzyme
Description: β-glucuronidase derived from E. Coli, glucurase at a concentration of 5,000 units/ml and bovine serum albumin were obtained from Sigma (St. Louis, Mo.). Glu A and Glu B were incubated at a concentration of 500 μM with β-glucuronidase ([…]) in 100 mM potassium acetate buffer solution in a 0.5 ml filter tube. The incubations were run in triplicate.
To each filter tube, 65 μl of 100 mM potassium acetate buffer, 5 μl of bovine serum albumin, and 100 μl of glucurase were added (100 mM potassium acetate was added to the control wells). The pH was adjusted to either pH 5.0 using 1N potassium hydroxide. 10 μl of 10 mM GluA or GluB were then added and the filter tubes were incubated for 30 minutes, 60 minutes or 18 hours at 37° C. Following incubation 20 μl of acetonitrile was added to the filter tubes and the filter tubes were centrifuged. The resulting filtrate was then analyzed by HPLC.
Glu A (500 μM) and Glu B (500 μM) were incubated with β-glucuronidase at 37° C. in pH 5.0 and pH 7.4 buffers. The pH 7.4 buffer is representative of the in vivo pH range in the GI tract. The results of each treatment are shown in Tables 5 (pH 5.0) and Table 6 (pH 7.4).
Glu A was prepared fresh in these experiments. A time-dependent incubation of Glu A and Glu B was carried out for 2, 4 and 6 hours.

[2] = Absorption (physicochemical properties)
[3] = Solubility; assay type: physicochemical
[4] = Stability in DMSO; assay type: physicochemical; settings: especially after freezing and thawing

Structure (SMILES) | Glucuronide remaining ([1]; pH 5.0, 0 hr) | Glucuronide remaining ([1]; pH 5.0, 0.5 hrs) | Glucuronide remaining ([1]; pH 5.0, 1 hr) | Glucuronide remaining ([1]; pH 7.4, 0 hr) | Glucuronide remaining ([1]; pH 7.4, 2 hrs) | Glucuronide remaining ([1]; pH 7.4, 4 hrs) | Stability in control samples without β-glucuronidase [1] | Absorption [2] [cm/s] | solubility ([3]; aqueous media, aqueous buffer, pH 3.0, read-out: Solubility in aqueous media) [µg/mL] | solubility ([3]; aqueous media, aqueous buffer, pH 7.0, read-out: Solubility in aqueous media) [µg/mL] | solubility ([3]; aqueous with cosolvent or surfactant or cyclodextrin, 20/80-weight% Tween 80/DI water, read-out: Solubility) [µg/mL] | solubility ([3]; neat PEG-400, organic solvent or mixture, read-out: Solubility) [µg/mL] | Glucuronide remaining ([1]; pH 5.0, 18 hrs) [% Glu-A] | Glucuronide remaining ([1]; pH 7.4, 6 hrs) [% Glu-A] | Stability in DMSO [4]
COc1cc2c(cc1OC)-c1nn(C3OC(C(=O)O)C(O)C(O)C3O)c(Nc3cccc(F)c3)c1C2 (stereo in doubt) [Cpd 1-GluB] | 100% Glu-B | 100% Glu-B | 100% Glu-B | 100% Glu-B | 100% Glu-B | 100% Glu-B | stable | – | – | – | – | – | – | – | –
COc1cc2c(cc1OC)-c1n[nH]c(Nc3cccc(F)c3)c1C2 [Compound 1, (6,7-dimethoxy-2,4-dihydro-indeno[1,2-c]pyrazol-3-yl)-(3-fluoro-phenyl)-amine] | – | – | – | – | – | – | – | 1.3e-05 | < 6 | < 2 | 10000 (≈ 30.7 mM) | 7500 (≈ 23.1 mM) | – | – | –
COc1cc2c(cc1OC)-c1n[nH]c(N(c3cccc(F)c3)[C@H]3O[C@@H](C(=O)O)[C@H](O)[C@@H](O)[C@@H]3O)c1C2 [Cpd 1-GluA] | 100% Glu-A | 60% Glu-A | 34% Glu-A | 100% Glu-A | 67% Glu-A | 48% Glu-A | stable | – | – | – | – | – | 0 | 23 | relatively unstable
